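Interpolation was linear, between the two tested concentrations surrounding the appropriate level; five concentrations were tested over 48 hours in 96-well plates. The concentration for 50% growth inhibition is given as GI50.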 The source made the active and inactive calls. Rule as the data show it: active = GI50 up to about 1.1 µM and inactive = higher. Non-standard residues stand in square brackets, D forms with d. Residues, ends and D or L forms follow the SMILES beside them. *: point of attachment. Ac5c = NC1(C(=O)O)CCCC1; Cbz = O=C(OCc1ccccc1)*; Boc = CC(C)(C)OC(=O)*; tBu = CC(C)(C)*
Experiments:
Test in all cases: NCI anticancer screen, dose series, 48 h
[1] = tested on: HL-60
[2] = tested on: SK-OV-3
[3] = tested on: A549
[4] = tested on: NCI/ADR-RES
[5] = tested on: EKVX
[6] = tested on: U-251
[7] = tested on: SF-268
[8] = tested on: Hs-578T
[9] = tested on: MDA-MB-231
[10] = tested on: OVCAR-5
[11] = tested on: SNB-19
[12] = tested on: DU-145
[13] = tested on: SN12C
[14] = tested on: MDA-N
[15] = tested on: HCT-15
[16] = tested on: ACHN
[17] = tested on: PC-3
[18] = tested on: HCC 2998
[19] = tested on: COLO 205
[20] = tested on: 786-0

Structure (SMILES) | GI50 [1] | GI50 [2] | GI50 [3] | GI50 [4] | GI50 [5] | GI50 [6] | GI50 [7] | GI50 [8] | GI50 [9] | GI50 [10] | GI50 [11] | GI50 [12] | GI50 [13] | GI50 [14] | GI50 [15] [µM] | GI50 [16] | GI50 [17] | GI50 [18] | GI50 [19] | GI50 [20]
CC(=O)O[C@H]1CC[C@H]2[C@@H]3CCC4=C/C(=N/OCCN(C)C)CC[C@]4(C)[C@H]3CC[C@]12C | 1.88 µM (inactive) | 12.2 µM (inactive) | 12 µM (inactive) | 12.6 µM (inactive) | 14.4 µM (inactive) | 13.3 µM (inactive) | 13.1 µM (inactive) | 13.5 µM (inactive) | 20.2 µM (inactive) | 16.9 µM (inactive) | 7.59 µM (inactive) | 16.1 µM (inactive) | 16.9 µM (inactive) | 3.65 µM (inactive) | 2.22 | 13.4 µM (inactive) | 12.5 µM (inactive) | 6.43 µM (inactive) | 2.27 µM (inactive) | 8.17 µM (inactive)
CC(C)CC(C(N)=O)C(=O)NC(Cc1ccccc1)NC(=O)CNC(=O)C(C)NC(=O)C(N)Cc1ccc(O)cc1 (stereo not given) | > 100 µM (inactive) | > 100 µM (inactive) | > 100 µM (inactive) | > 100 µM (inactive) | > 100 µM (inactive) | > 100 µM (inactive) | > 100 µM (inactive) | > 100 µM (inactive) | > 100 µM (inactive) | > 100 µM (inactive) | > 100 µM (inactive) | > 100 µM (inactive) | > 100 µM (inactive) | > 100 µM (inactive) | > 100 | > 100 µM (inactive) | > 100 µM (inactive) | > 100 µM (inactive) | > 100 µM (inactive) | > 100 µM (inactive)
O=S(=O)(Cc1nc2ccccc2s1)c1nc2ccccc2s1 | 8.11 µM (inactive) | 37 µM (inactive) | 29.3 µM (inactive) | 43.2 µM (inactive) | 18.5 µM (inactive) | 18.5 µM (inactive) | 15.6 µM (inactive) | 19.9 µM (inactive) | 17.1 µM (inactive) | 20 µM (inactive) | 21.5 µM (inactive) | 17.9 µM (inactive) | 16.8 µM (inactive) | 15.5 µM (inactive) | 16.3 | 16.3 µM (inactive) | 17 µM (inactive) | 16.4 µM (inactive) | 17.9 µM (inactive) | 17.4 µM (inactive)
CCOC(=O)C1C(=O)C=C(c2cc(C)ccc2O)CC1c1cccc(Cl)c1 (stereo not given) | 25.8 µM (inactive) | 20 µM (inactive) | 19 µM (inactive) | 17.5 µM (inactive) | 30.1 µM (inactive) | 18.5 µM (inactive) | 22.3 µM (inactive) | 21 µM (inactive) | 23.9 µM (inactive) | 43.7 µM (inactive) | 19.6 µM (inactive) | 50.1 µM (inactive) | 27.7 µM (inactive) | 6.04 µM (inactive) | 3.13 | 19.7 µM (inactive) | 11.5 µM (inactive) | 24.5 µM (inactive) | 18.5 µM (inactive) | 36.6 µM (inactive)
COc1cc2c(cc1OCCCC(=O)Nc1cc(C(=O)Nc3cc(C(=O)Nc4cc(C(=O)NCCCN(C)C)n(C)n4)n(C)c3)n(C)c1)N=CC1CCCN1C2=O (stereo not given) | 2.52 µM (inactive) | 40.6 µM (inactive) | 49.3 µM (inactive) | 39.8 µM (inactive) | 74 µM (inactive) | 23.9 µM (inactive) | 27.9 µM (inactive) | 22.1 µM (inactive) | 34.5 µM (inactive) | 40 µM (inactive) | 22.5 µM (inactive) | 32.1 µM (inactive) | 22.5 µM (inactive) | 20 µM (inactive) | 28.5 | 17.1 µM (inactive) | 23.6 µM (inactive) | 28.1 µM (inactive) | 21.2 µM (inactive) | 22.3 µM (inactive)
COC(=O)C1(NC(=O)C(Cc2ccccc2)NC(=O)C(NC(=O)C(CCCCNC(=O)OC(C)(C)C)NC(=O)C(Cc2c[nH]c3ccccc23)NC(=O)C(Cc2ccccc2)NC(=O)OCc2ccccc2)C(C)OC(C)(C)C)CCCC1 (stereo not given) (Cbz-FWK(Boc)T(tBu)F[Ac5c]-OMe; configuration not given here) | > 100 µM (inactive) | 93.3 µM (inactive) | > 100 µM (inactive) | > 100 µM (inactive) | > 100 µM (inactive) | 34 µM (inactive) | > 100 µM (inactive) | > 100 µM (inactive) | 25.9 µM (inactive) | 64.1 µM (inactive) | 52.2 µM (inactive) | > 100 µM (inactive) | > 100 µM (inactive) | > 100 µM (inactive) | > 100 | > 100 µM (inactive) | > 100 µM (inactive) | > 100 µM (inactive) | > 100 µM (inactive) | > 100 µM (inactive)
CC1CC(C)(O)CC(C(O)CC2CC(=O)NC(=O)C2)C1=O (stereo not given) [RESACTIN A] | 0.0392 µM (active) | 0.0818 µM (active) | 0.0513 µM (active) | 0.232 µM (active) | 0.0505 µM (active) | 0.0313 µM (active) | 0.0455 µM (active) | < 0.0126 µM (active) | < 0.01 µM (active) | 0.059 µM (active) | 0.0303 µM (active) | 0.0461 µM (active) | 0.0202 µM (active) | 0.0372 µM (active) | 0.0989 | 0.0224 µM (active) | 0.0465 µM (active) | 0.0441 µM (active) | 0.0381 µM (active) | 0.0252 µM (active)

Reference: ChEMBL document CHEMBL1201862, “PubChem BioAssay data set” (2004)
